Measurements as given in patent publication US20150239831A1, “INHIBITORS OF CENTRAL NERVOUS SYSTEM VASOACTIVE INHIBITORY PEPTIDE RECEPTOR 2” (The Trustees Of Columbia University In The City Of New York, priority 2012, published 2015).

What was measured:
Format in all cases: cell-based
Design in all cases: expressed in transfected cells; host or cells: HEK293 cells transfected with VIPR2 in pCDNA3.1 (as described)
[1] = molecular target: T1, VIPR2 (Homo sapiens, UniProt P41587); experiment: % Activity: inhibition of VIP-induced cAMP elevation and β-arrestin recruitment (Table 2)
T1 sequence (P41587 24-438): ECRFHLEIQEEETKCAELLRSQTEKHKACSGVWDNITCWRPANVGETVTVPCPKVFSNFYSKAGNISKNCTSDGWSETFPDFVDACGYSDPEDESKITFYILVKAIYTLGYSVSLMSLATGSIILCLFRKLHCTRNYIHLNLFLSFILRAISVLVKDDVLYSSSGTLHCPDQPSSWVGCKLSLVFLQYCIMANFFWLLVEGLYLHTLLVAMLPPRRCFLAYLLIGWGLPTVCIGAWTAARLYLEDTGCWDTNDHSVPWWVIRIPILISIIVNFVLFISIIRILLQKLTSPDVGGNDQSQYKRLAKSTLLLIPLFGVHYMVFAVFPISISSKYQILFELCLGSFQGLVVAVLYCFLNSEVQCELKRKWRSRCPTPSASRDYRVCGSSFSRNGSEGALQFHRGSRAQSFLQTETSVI
Source text: (§1) In a further non-limiting embodiment of the invention, the ability of a compound to inhibit VIPR2 and thereby […] a VIP-induced increase in cAMP may be measured using a Homogeneous Time-Resolved Fluorescence (“HTRF® assay; Cisbio Bioassays) as used in Chu et al., 2010, Molecular Pharmacol. 7795-101. In a method as used in Chu et al., 2010, Molecular Pharmacol. 7795-101, HEK293 cells may be transfected with nucleic acid encoding VIPR2, for example human VIPR2 (“hVIPR2”), for example comprised in a vector such as pCDNA3.1 vector. Successful transformants may then be selected, for example using 800 μg/ml G418. Clonal stable cell lines may then be generated by limited dilution to single cells and then may be clonally expanded and tested for VIP -dependent cAMP response. For the cAMP assay, about 3000-15,000 cells (in about 4-25 μl) may be placed in a well of an assay plate. The next day, inhibitor or test inhibitor and VIP may be added in a volume about 1-2 percent of the initial volume. Assay plates may then be returned to a cell incubator for 30 min before addition of a one-half volume of cAMP conjugate and, relative to the amount of cAMP conjugate, an equal volume of anti-cAMP conjugate (Cisbio). After at least 1 h of room-temperature incubation, HTRF signal may be read, for example using Viewlux or EnVision (PerkinElmer Life and Analytical Sciences, Waltham, Mass.). The ratio of […] at 665 nm and 620 nm times 10,000 may be calculated and plotted.
(§2) In a further non-limiting embodiment of the invention, the ability of a compound to inhibit VIPR2 GPCR activity may be tested, for example, using the PathHunter® eXpress β-Arrestin GPCR system (Discoverx Corporation, Fremont, Calif., US), as used by Chu et al., 2010, Molecular Pharmacol. 7795-101. In this assay, β-Arrestin is fused to the “Enzyme Acceptor” (“EA”), an N-terminal deletion mutant of β-gal, and the GPCR of interest is fused to a smaller (42 amino acids), weakly complementing portion of the β-gal enzyme (termed “ProLink™”). In cells that stably express these fusion proteins, the interaction of β-Arrestin and the GPCR following ligand stimulation forces the complementation of the two β-gal fragments resulting in the formation of a functional enzyme that converts substrate to detectable signal. In the absence of an interaction between the GPCR and β-Arrestin, the enzyme activity is low due to the low affinity of the two enzyme fragments. For example, a nucleic acid encoding VIPR2, for example hVIPR2, may be cloned into the ProLink vector (DiscoveRx) for GPCR-ProLink fusion protein production. Parental HEK293 cells that stably express β-arrestin2-β-gal-EA fusion protein (DiscoveRx) may be detached and transiently transfected with the VIPR2-containing vector using Fugene6 transfection reagent in suspension mode. Transfected cells in assay medium may be plated into test plates, for example at 15,000 cells/25 μl/well. After overnight incubation, 500 nl of an inhibitor or test inhibitor may be introduced into the test plate followed by 2 h incubation at 37° C., 5% CO2. Flash detection reagents may be added at 12.5 μl/well. After 5 min to 1 h of room-temperature incubation, the cell plates may be read on CLIPR (PerkinElmer Life and Analytical Sciences)or Acquest (Molecular Devices, Sunnyvale, Calif.) for luminescence signal.
(§3) A series of compounds were prepared using a synthetic method analogous to that set forth in Scheme 1, above, and then tested for their ability to inhibit VIP-induced cAMP elevation and β-arrestin recruitment, as described herein (Discoverx Corporation, Fremont, Calif., US). Compound activities were also tested in a BRET-based assay, as described herein. The results are shown below in Tables 1-4, above.

[2] = molecular target: T1, VIPR2; experiment: Inhibition of VIP-induced cAMP elevation (% Activity cAMP)
Source text: as §1
(§4) A series of compounds were prepared using a synthetic method analogous to that set forth in Scheme 1, above, and then tested for their ability to inhibit VIP-induced cAMP elevation and β-arrestin recruitment.
as §3

[3] = molecular target: T1, VIPR2; experiment: Inhibition of VIP-induced β-arrestin recruitment (% Activity Arrestin)
Source text: as §2, §4, §3

O=C(Cc1cccc(Cl)c1)NC[C@@H](O)C[C@@H](Cc1ccccc1)C(=O)N[C@H]1c2ccccc2C[C@H]1O [Compound A19]
% Activity [1]: 21.85%
inhibition at 0.5 µM ([2]; Batch 1): 14.4%
inhibition at 1 µM ([2]; Batch 1): 16%
inhibition at 5 µM ([2]; Batch 1): 26.5%
inhibition at 0.5 µM ([3]; Batch 1): 11.3%
inhibition at 1 µM ([3]; Batch 1): 20.1%
inhibition at 5 µM ([3]; Batch 1): 17.2%

O=C(CCN1C(=O)C=CC1=O)NC[C@@H](O)C[C@@H](Cc1ccccc1)C(=O)N[C@H]1c2ccccc2C[C@H]1O [Compound A21]
% Activity [1]: 7.75%
inhibition at 0.5 µM ([2]; Batch 1): 15.5%
inhibition at 1 µM ([2]; Batch 1): 19%
inhibition at 5 µM ([2]; Batch 1): 18.6%
inhibition at 0.5 µM ([3]; Batch 1): 9.9%
inhibition at 1 µM ([3]; Batch 1): 15.2%
inhibition at 5 µM ([3]; Batch 1): -3.1%

O=C(CCCCl)NC[C@@H](O)C[C@@H](Cc1ccccc1)C(=O)N[C@H]1c2ccccc2C[C@H]1O [Compound A22]
% Activity [1]: 18.5%
inhibition at 0.5 µM ([2]; Batch 1): 16.4%
inhibition at 1 µM ([2]; Batch 1): 18.2%
inhibition at 5 µM ([2]; Batch 1): 15.9%
inhibition at 0.5 µM ([3]; Batch 1): 19.2%
inhibition at 1 µM ([3]; Batch 1): 24.3%
inhibition at 5 µM ([3]; Batch 1): 21.1%

C#CCCCC(=O)NC[C@@H](O)C[C@@H](Cc1ccccc1)C(=O)N[C@H]1c2ccccc2C[C@H]1O [Compound A23]
% Activity [1]: 26.2%
inhibition at 0.5 µM ([2]; Batch 1): 20.8%
inhibition at 1 µM ([2]; Batch 1): 20.2%
inhibition at 5 µM ([2]; Batch 1): 26.6%
inhibition at 0.5 µM ([3]; Batch 1): 45.8%
inhibition at 1 µM ([3]; Batch 1): 16.1%
inhibition at 5 µM ([3]; Batch 1): 25.8%

C=Cc1ccc(C(=O)NC[C@@H](O)C[C@@H](Cc2ccccc2)C(=O)N[C@H]2c3ccccc3C[C@H]2O)cc1 [Compound A24]
% Activity [1]: 12.8%
inhibition at 0.5 µM ([2]; Batch 1): 16.1%
inhibition at 1 µM ([2]; Batch 1): 16.5%
inhibition at 5 µM ([2]; Batch 1): 23.8%
inhibition at 0.5 µM ([3]; Batch 1): 2.3%
inhibition at 1 µM ([3]; Batch 1): 47.5%
inhibition at 5 µM ([3]; Batch 1): 1.8%

O=C(NC[C@@H](O)C[C@@H](Cc1ccccc1)C(=O)N[C@H]1c2ccccc2C[C@H]1O)c1ccc([N+](=O)[O-])cc1 [Compound A25]
% Activity [1]: 18.75%
inhibition at 0.5 µM ([2]; Batch 1): 14%
inhibition at 1 µM ([2]; Batch 1): 22.3%
inhibition at 5 µM ([2]; Batch 1): 21.1%
inhibition at 0.5 µM ([3]; Batch 1): -0.5%
inhibition at 1 µM ([3]; Batch 1): 18.6%
inhibition at 5 µM ([3]; Batch 1): 16.4%

CC(C)(C)c1ccc(C(=O)NC[C@@H](O)C[C@@H](Cc2ccccc2)C(=O)N[C@H]2c3ccccc3C[C@H]2O)cc1 [Compound A26]
% Activity [1]: 15.5%
inhibition at 0.5 µM ([2]; Batch 1): 10.7%
inhibition at 1 µM ([2]; Batch 1): 16%
inhibition at 5 µM ([2]; Batch 1): 23.2%
inhibition at 0.5 µM ([3]; Batch 1): 16.2%
inhibition at 1 µM ([3]; Batch 1): 11.3%
inhibition at 5 µM ([3]; Batch 1): 7.8%

NC[C@@H](O)C[C@@H](Cc1ccccc1)C(=O)N[C@H]1c2ccccc2C[C@H]1O [Compound A28]
% Activity [1]: 17.45%
inhibition at 0.5 µM ([2]; Batch 1): 11.8%
inhibition at 1 µM ([2]; Batch 1): 15.9%
inhibition at 5 µM ([2]; Batch 1): 15.2%
inhibition at 0.5 µM ([3]; Batch 1): 3.7%
inhibition at 1 µM ([3]; Batch 1): 1.4%
inhibition at 5 µM ([3]; Batch 1): 19.7%

O=C(NC1CCCC1)[C@H](Cc1ccccc1)C[C@H](O)CNS(=O)(=O)c1ccc([N+](=O)[O-])cc1 [Compound B1A]
% Activity [1]: 6.95%
inhibition at 0.5 µM ([2]; Batch 2): -2.1%
inhibition at 1 µM ([2]; Batch 2): -4.9%
inhibition at 5 µM ([2]; Batch 2): 4.7%
inhibition at 0.5 µM ([3]; Batch 2): 17.4%
inhibition at 1 µM ([3]; Batch 2): 17.1%
inhibition at 5 µM ([3]; Batch 2): 9.2%

O=C(NC1CCCC1)[C@@H](Cc1ccccc1)C[C@H](O)CNS(=O)(=O)c1ccc([N+](=O)[O-])cc1 [Compound B1B]
% Activity [1]: 0.5%
inhibition at 0.5 µM ([2]; Batch 2): -7.5%
inhibition at 1 µM ([2]; Batch 2): -2.5%
inhibition at 5 µM ([2]; Batch 2): -0.3%
inhibition at 0.5 µM ([3]; Batch 2): -5.7%
inhibition at 1 µM ([3]; Batch 2): -6.1%
inhibition at 5 µM ([3]; Batch 2): 1.3%

O=C(NC1Cc2ccccc2C1)[C@H](Cc1ccccc1)C[C@H](O)CNS(=O)(=O)c1ccc([N+](=O)[O-])cc1 [Compound B2A]
% Activity [1]: 12.9%
inhibition at 0.5 µM ([2]; Batch 2): 5.7%
inhibition at 1 µM ([2]; Batch 2): 7.5%
inhibition at 5 µM ([2]; Batch 2): 16%
inhibition at 0.5 µM ([3]; Batch 2): -2.7%
inhibition at 1 µM ([3]; Batch 2): 8.1%
inhibition at 5 µM ([3]; Batch 2): 9.8%

O=C(NCc1ccccc1)[C@H](Cc1ccccc1)C[C@H](O)CNS(=O)(=O)c1ccc([N+](=O)[O-])cc1 [Compound B3A]
% Activity [1]: 10.65%
inhibition at 0.5 µM ([2]; Batch 2): -1.1%
inhibition at 1 µM ([2]; Batch 2): -1.3%
inhibition at 5 µM ([2]; Batch 2): -2.9%
inhibition at 0.5 µM ([3]; Batch 2): 1.8%
inhibition at 1 µM ([3]; Batch 2): 4.4%
inhibition at 5 µM ([3]; Batch 2): 24.2%

O=C(NCc1ccccc1)[C@@H](Cc1ccccc1)C[C@H](O)CNS(=O)(=O)c1ccc([N+](=O)[O-])cc1 [Compound B3B]
% Activity [1]: 6.05%
inhibition at 0.5 µM ([2]; Batch 2): -1%
inhibition at 1 µM ([2]; Batch 2): 1.5%
inhibition at 5 µM ([2]; Batch 2): 4.9%
inhibition at 0.5 µM ([3]; Batch 2): -0.3%
inhibition at 1 µM ([3]; Batch 2): -4.1%
inhibition at 5 µM ([3]; Batch 2): 7.2%

O=C(NC1CCCCCC1)[C@H](Cc1ccccc1)C[C@H](O)CNS(=O)(=O)c1ccc([N+](=O)[O-])cc1 [Compound B5A]
% Activity [1]: 5.25%
inhibition at 0.5 µM ([2]; Batch 2): 1.7%
inhibition at 1 µM ([2]; Batch 2): 5.6%
inhibition at 5 µM ([2]; Batch 2): 12.9%
inhibition at 0.5 µM ([3]; Batch 2): -19.2%
inhibition at 1 µM ([3]; Batch 2): -5.4%
inhibition at 5 µM ([3]; Batch 2): -2.4%

O=C(NC1CCCCCC1)[C@@H](Cc1ccccc1)C[C@H](O)CNS(=O)(=O)c1ccc([N+](=O)[O-])cc1 [Compound B5B]
% Activity [1]: 10.55%
inhibition at 0.5 µM ([2]; Batch 2): 15.5%
inhibition at 1 µM ([2]; Batch 2): 10.6%
inhibition at 5 µM ([2]; Batch 2): 14.3%
inhibition at 0.5 µM ([3]; Batch 2): -4%
inhibition at 1 µM ([3]; Batch 2): 3.6%
inhibition at 5 µM ([3]; Batch 2): 6.8%

O=C(NN1CCCCC1)[C@H](Cc1ccccc1)C[C@H](O)CNS(=O)(=O)c1ccc([N+](=O)[O-])cc1 [Compound B6A]
% Activity [1]: 5.45%
inhibition at 0.5 µM ([2]; Batch 2): 6.3%
inhibition at 1 µM ([2]; Batch 2): 7.1%
inhibition at 5 µM ([2]; Batch 2): 4.4%
inhibition at 0.5 µM ([3]; Batch 2): -6.4%
inhibition at 1 µM ([3]; Batch 2): 4.4%
inhibition at 5 µM ([3]; Batch 2): 6.5%

O=C(NN1CCCCC1)[C@@H](Cc1ccccc1)C[C@H](O)CNS(=O)(=O)c1ccc([N+](=O)[O-])cc1 [Compound B6B]
% Activity [1]: 5.35%
inhibition at 0.5 µM ([2]; Batch 2): 9.2%
inhibition at 1 µM ([2]; Batch 2): 12.3%
inhibition at 5 µM ([2]; Batch 2): 6%
inhibition at 0.5 µM ([3]; Batch 2): -0.9%
inhibition at 1 µM ([3]; Batch 2): 3.3%
inhibition at 5 µM ([3]; Batch 2): 4.7%
